The source of these data is patent US9771377B2, “Synthesis of FR901464 and analogs with antitumor activity” (University of Pittsburgh—Of the Commonwealth System of …, priority 2012, dated 2017).

One assay concerns A549. The assay can be described thus: Growth inhibition assay (MTS), A549. It counts as cell-based. Particulars: 3 to 5 days. As for the experimental part:
(§1) Meayamycin, 4-TEGylated meayamycin, and 4-TEGylated FR901464 (right fragment) compounds were produced using the above protocols. The compounds were dissolved in dimethyl sulfoxide (DMSO) as 10 mM stocks and stored at −20° C. Prior to assays being performed, aliquots were thawed at room temperature and dilutions were prepared in RPMI 1640 medium containing 2% DMSO at 2×the desired concentration prior to addition to the cells.
(§2) The cells were grown at 37° C. in an atmosphere containing 5% carbon dioxide in corning cell culture flasks (25 cm^2) in RPMI 1640 cell culture medium containing 10% fetal bovine serum, 1% Penicillin/Streptomycin, and 1% L-Glutamine.
(§3) Cells were plated in 96 well plates at an initial density of 2,000 cells per well in 100 μL of medium and were incubated for 24 hours prior to compound addition. […] The compound was added to the cells at 2× the desired concentration in 100 μL cell culture medium. The cells were then incubated for an additional 3 to 5 days. Cell proliferation was measured using a commercial MTS solution (20 μL per well). The absorbance (at 490 nm and 630 nm) was measured by a Spectromax M2 plate reader (Molecular Devices). Each concentration treatment was done in quadruplets and the final numbers were averaged.

A further assay concerns MDA-MB-231. Put plainly: Growth inhibition assay (MTS), MDA-MB-231. It counts as cell-based. Particulars: 3 to 5 days. As for the experimental part:
as §1, §2, §3

Another assay relates to HCT116. Put plainly: Growth inhibition assay (MTS), HCT116. It counts as cell-based. The procedure: as §1, §2, §3
A further assay deals with cancer cell. The assay can be described thus: Cancer cell antiproliferative activity (background statement). The assay is classed as cell-based. The text has this:
This pharmacological profile for FR901464 has drawn considerable interest, focusing on its potential as an anticancer agent.

In a further assay the test system is PCI 13. Put plainly: Growth inhibition assay (MTS), PCI 13. The assay is classed as cell-based. Particulars: 3 to 5 days. As for the experimental part: as §1, §2, §3
The subject of another assay is JHU 012. The assay can be described thus: Growth inhibition assay (MTS), JHU 012. Particulars: 3 to 5 days. The assay is classed as cell-based. As for the experimental part:
as §1, §2, §3

The test system of the next assay is HEK-293-II. Put plainly: Growth inhibition assay (MTS), HEK-293-II. It counts as cell-based. The procedure: as §1, §2, §3
The subject of assay [1] is pre-mRNA splicing in HEK-293-II cells. Put plainly: HEK-293-II cell-based splicing inhibition assay (luciferase, RT-PCR). The procedure: Splicing inhibition by PEGylated meayamycin was evaluated using the published HEK-293-II cell-based assay. In short, luciferase expression increases when pre-mRNA splicing is inhibited. Yang Gao et al., published online at Chem Bio Chem. Nov. 22, 2012 (DOI: 10.1002/cbic.201200558). […] (FIG. 1). Pre-mRNA splicing inhibition by 4-TEGylated meayamycin was examined in HEK-293-II cells over 72 h. The splicing inhibition, as manifested by the luciferase activity, in the 4-TEGylated meayamycin-treated cells persisted for 48 h, which was different from that in the meayamycin-treated cells. (FIG. 2).

In another assay the test system is MCF-7. Put plainly: Growth inhibition assay (MTS), MCF-7. The assay is classed as cell-based. As for the experimental part:
as §1, §2
Cells were plated in 96 well plates at an initial density of 2,000 cells per well in 100 μL of medium and were incubated for 24 hours prior to compound addition. Serial two-fold dilutions were used in this experiment from 100 nM to 0.000191 nM. The compound was added to the cells at 2× the desired concentration in 100 μL cell culture medium. The cells were then incubated for an additional 3 to 5 days. Cell proliferation was measured using a commercial MTS solution (20 μL per well). The absorbance (at 490 nm and 630 nm) was measured by a Spectromax M2 plate reader (Molecular Devices). Each concentration treatment was done in quadruplets and the final numbers were averaged.

For another assay, the system named is MCF-7 cells. Particulars: MCF-7 cells at 20 nM; cited from earlier work.
The next assay deals with tumor. Conditions: mouse model; cited from earlier work.
The mark [2] stands for this setting: HEK-293-II, 3 to 5 days, MTS, read-out: GI50.

Each structure is given as a SMILES string. Read-outs that look alike come from different tables or passages of the source.

The GI50 is the concentration that inhibits growth by half.

As for `C=C[C@H]1OC(C)(C)C[C@@]2(CO2)[C@@H]1OCCOCCOCCOCCN=[N+]=[N-]` [4-TEGylated FR901464 (right fragment)], the GI50 with A549 (Homo sapiens) is 2200 nM; in the assay with MDA-MB-231 (Homo sapiens), 1500 nM; in the assay on HCT116 (Homo sapiens, HCT-116, HCT116, 3 to 5 days, MTS, read-out: GI50), 2200 nM; in the assay on PCI 13 it was 3700 nM; in the assay on JHU 012, 2000 nM; in the assay with HEK-293-II (setting [2]), 8900 nM. The IC50 with HCT116 (Homo sapiens, HCT-116, read-out: GI150, inhibition of HCT-116 proliferation) was 1500 nM. Also, the “cancer cell antiproliferative activity” value in the assay on cancer cell is “high cancer cell antiproliferative activity”.

Regarding `CC(=O)O[C@@H](C)/C=C\C(=O)N[C@@H]1C[C@H](C)[C@H](C/C=C(C)/C=C/[C@H]2OC(C)(C)C[C@@]3(CO3)[C@@H]2OCCOCCOCCOCCN=[N+]=[N-])O[C@@H]1C` [4-TEGylated meayamycin], the “time the splicing inhibition (luciferase activity) persisted” value in [1] (HEK-293-II cells examined over 72 h, FIG. 2) stood at 48 h. Moreover, the “RT-PCR analysis of total RNA: pre-mRNA splicing” value in [1] (HEK-293-II cells, FIG. 1) is on record as “inhibited pre-mRNA splicing”. The IC50 in [1] (HEK-293-II, luciferase, 16-h treatment, average of three independent experiments, read-out: IC150, inhibitory activity towards pre-mRNA splicing) came out at 2.4 nM. For the same compound, the GI50 is 2.4 nM in the assay with MCF-7 (Homo sapiens, MCF7, 3 to 5 days); 0.1 nM in the assay with HCT116 (Homo sapiens, HCT-116); 46 nM with HEK-293-II.

For the compound `CC(/C=C/[C@H]1OC(C)(C)C[C@@]2(CO2)[C@@H]1CCCOCCOCCOCCN=[N+]=[N-])=C\C[C@@H]1O[C@H](C)C(NC(=O)/C=C\[C@H](C)OC(=O)N2CCOCC2)C[C@@H]1C` (stereo partly shown) [4-TEGylated-FR901464 analog], the “cancer cell antiproliferative activity” value in the assay on cancer cell was “high cancer cell antiproliferative activity”.

With `CC(=O)O[C@@H](C)/C=C\C(=O)N[C@@H]1C[C@H](C)[C@H](C/C=C(C)/C=C/[C@H]2O[C@](C)(O)C[C@@]3(CO3)[C@@H]2O)O[C@@H]1C` [FR901464], the “mRNA levels of p53, p21, c-myc, and E2F-1” value with MCF-7 cells was “lowers the mRNA levels”. The “concentrations at which antitumor activity is exhibited” value in the assay on tumor is 0.056 to 0.18 mg/kg.

For the compound `CC(=O)O[C@@H](C)/C=C\C(=O)N[C@@H]1C[C@H](C)[C@H](C/C=C(C)/C=C/[C@H]2OC(C)(C)C[C@@]3(CO3)[C@@H]2O)O[C@@H]1C` [meayamycin, reference compound], the GI50 with A549 stood at 0.26 nM; with MDA-MB-231 it was 0.07 nM; in the assay with MCF-7 (3 to 5 days), 0.8 nM; in the assay on HCT116 (HCT116, 3 to 5 days, MTS, read-out: GI50) it was 0.038 nM; in the assay on PCI 13 it was 4.8 nM; in the assay on JHU 012 it was 4.7 nM. For the same compound, the GI50 in the assay on HEK-293-II (setting [2]) was 7.8 nM.

On to `C=C[C@H]1OC(C)(C)C[C@@]2(CO2)[C@@H]1O` [right fragment without PEGylation, (3R,4R,5R)-7,7-dimethyl-5-vinyl-1,6-dioxaspiro[2.5]octan-4-ol], for which the antiproliferation activity entry in the assay with HCT116 (even at 200 μM) is “no antiproliferation activity”.
